The values below come from US12319694B2, “Heterocyclic nitrogen-containing purine derivatives, pharmaceutical preparations containing these derivatives and their use in neuroprotection” (UNIVERZITA PALACKEHO, priority 2019, dated 2025).

For series [1], the system named is SH-SY5Y human neuroblastoma cell line (differentiated phenotype). Briefly: Calcein AM viability test on ATRA-differentiated SH-SY5Y cells. It counts as cell-based. Conditions: 24 h, DMSO control = 100%. The method, then: (§1) The SH-SY5Y human neuroblastoma cell line obtained as kind gift from Walter d'Acunto (originally purchased from ATCC—American Type Culture Collection (Manassas, VA, USA) was cultivated in Dulbecco's modified Eagle's Medium and Ham's F12 Nutrient Mixture (DMEM:F-12, 1:1), supplemented with 10% fetal bovine serum (FBS) and 1% penicillin and streptomycin at 37° C. in a humidified atmosphere 5% CO2, 95% air in passage limit up to ATCC+15. The assay was performed in 96-well microplate with 7000 SH-SY5Y cells per well. Next day, SH-SY5Y underwent all-trans retinoic acid (ATRA)-differentiation for 48 h (ATRA 10 μM). After 48 h, old DMEM/F12 media was removed by fresh media containing tested compounds at 0.1, 1 and 10 μM concentrations for 24 h. The tested compounds were dissolved in DMSO were added into the medium. The maximum concentration of DMSO in media was kept below 0.1% (v/v). The cell viability was measured by Calcein AM (1 mg/ml ThermoFisher) viability assay. Solution of Calcein AM in PBS (0.5 uM) was pipetted to cells and incubated for 50 minutes. After that the fluorescence was measured at 488/517 nm (excitation/emission) using microplate reader Infinite M200 (TECAN). Calcein AM assay is based on the dye-intracellular-esterase cleavage of non-fluorescent dye (Calcein AM) by living cells to fluorescent dye (Calcein), while dyeing cells that lose such ability. The values in Table 4 show % of viability, relative to control of all tested compounds. The control (medium with DMSO, <0.1% (v/v)) was postulated as 100% viability (see the first line of the table).

The test system is the same in series [2]. Briefly: Viability test, salsolinol-induced model of Parkinson's disease in differentiated SH-SY5Y (Calcein AM). The note with it: 24 h. It counts as cell-based. On the procedure: as §1
Similarly, to the previous test the assay was performed in 96-well microplates with 7000 SH-SY5Y cells per well. Day after the seeding of cells, SH-SY5Y underwent all-trans retinoic acid (ATRA)-differentiation for 48 h (ATRA 10 μM). After 48 h, old DMEM/F12 media was removed by fresh media containing 500 μM dopaminergic neurotoxin Salsolinol (SAL) without or with tested compounds at 0.1, 1 and 10 μM concentrations. […] After 24 h the cell viability was measured by Calcein AM viability assay.

Series [3] deals with SH-SY5Y human neuroblastoma cell line. Briefly: Oxidative stress measurement (dihydroethidium, superoxide) in SH-SY5Y, salsolinol-induced model of PD. Type of series: cell-based. Conditions: 6 h. The method, then:
The assay was performed in 96-well microplate with 7000 cells/well. Next day, SH-SY5Y underwent differentiation protocol for 48 h see above. Treatment procedure remained the same as in previous section (Cell treatment and viability/cytotoxicity assays). Additionally, oxidative stress (OS) inducers such as 6-hydroxydopamine (6-OHDA) and glutamate (Glu) alone were used as […]. Negative controls determined threshold of excessive OS. […] After 30 minutes, DHE was read at 500 nm/580 nm (excitation/emission). DHE is cell permeable dye which is selective toward superoxide radical detection.

Series [4] in a line: Radical scavenging activity by ORAC assay. Conditions: NAUC relative to trolox; mean ± SD (n = 3). The method, then: The ability of compounds to scavenge free radicals in vitro was determined by Oxygen Radical Absorbance Capacity (ORAC) method. In brief, fluorescein (100 μL, […]) and 25 μL of tested compound solution were added into each working well in a 96-well microplate preincubated at 37° C. Thereafter, 25 μL of 250 mM 2,2′-azobis(2-amidino-propan)dihydrochloride (AAPH) was quickly added, microplate was shaken for 5 s and the fluorescence (Ex. 485 nm, Em. 510 nm) was read every 3 min over 90 min by using microplate reader Infinite 200 (TECAN, Switzerland). The NAUC value (Net Area Under Curve) was used to express antioxidant activity relative to trolox (hydrophilic equivalent of vitamin E postulated as a standard). Substances with an ORAC value greater than 0 actively trap free radicals.

Series [5] concerns Nrf2. Briefly: Activation of Nrf2-dependent expression, EpRE-LUX reporter cell line. It counts as cell-based. The note with it: 24 h; tested at 100, 10, 1 and 0.1 μM, concentration of the printed value not stated; mean ± SD (n = 3). On the procedure:
The ability of compounds to activate Nrf2-dependent expression was determined by EpRE-LUX reporter cell line. In brief, compounds at 100, 10, 1 and 0.1 μM concentrations of the tested compounds were incubated for 24 h with the cells. After cells lysis (10 mM Tris, 2 mM DTT), a buffer containing 0.2 mM luciferin was added to start luminescent reaction. The increase in luminescence was measured with microplate reader Infinite M200 (TECAN). Compounds with Nrf2 value higher than 0 are strong Nrf2 activators and thus will be useful agents for the treatment of neurodegenerative diseases associated with oxidative stress.

The nature of series [6]: Calcein AM viability test on ATRA-differentiated SH-SY5Y cells. It counts as cell-based, human. The note with it: human, ATRA-differentiated SH-SY5Y neuroblastoma cells, DMSO control = 100%, read-out: % of viability, relative to control. On the procedure:
as §1

[7] abbreviates: 0.1 μM compound with 500 μM Salsolinol.
Setting [8] is: 1 μM compound with 500 μM Salsolinol.
The mark [9] stands for this setting: 10 μM compound with 500 μM Salsolinol.

With `COc1ccccc1Cn1cnc2c(N3CCCC3)nc(N3CCCC3)nc21` [Compound 35], the “% of viability, relative to control” value in series [1] (0.1 μM compound) is reported as 104.22%; in series [1] (1 μM compound), 118.77%; in series [1] (10 μM compound), 135.02%. In addition, the “Neuroprotective effect (% of control)” value in series [2] (setting [7]) was 1.19 % of control; in series [2] (setting [8]), 13.01 % of control; in series [2] (setting [9]), 19.11 % of control. The “Oxidative stress (% of control)” value is 161.97 % of control in series [3] (1 μM compound with SAL 500 μM) and 214.57 % of control in series [3] (10 μM compound with SAL 500 μM). Further, in series [4], the “ORAC (compound/trolox)” value is recorded as 0.033 ± 0.001 compound/trolox. Moreover, the “Nrf2 (relative luminiscence)” value in series [5] is given as 0.04 ± 0.00 relative luminiscence.
As to `COc1cccc(Cn2cnc3c(N4CCCC4)nc(N4CCCC4)nc32)c1` [Compound 42], the “% of viability, relative to control” value in series [1] (0.1 μM compound) was 112.01%; in series [1] (1 μM compound) it was 127.94%; in series [1] (10 μM compound) it was 138.52%. Besides, the results for the “Neuroprotective effect (% of control)” value in series [2] (setting [7]), in series [2] (setting [8]) and in series [2] (setting [9]) were 6.86 % of control, 15.44 % of control and 20.05 % of control, respectively. The “Oxidative stress (% of control)” value in series [3] (1 μM compound with SAL 500 μM) was 171.55 % of control; in series [3] (10 μM compound with SAL 500 μM), 173.94 % of control. For the same molecule, in series [4], the “ORAC (compound/trolox)” value stood at 0.029 ± 0.002 compound/trolox. For the same molecule, the “Nrf2 (relative luminiscence)” value in series [5] was determined as 0.00 ± 0.00 relative luminiscence.
On to `c1ccc(Cn2cnc3c(N4CCC4)nc(N4CCC4)nc32)cc1` [Compound 1], for which the “% of viability, relative to control” value in series [1] (0.1 μM compound) is 104.80%; in series [1] (1 μM compound), 114.03%; in series [1] (10 μM compound), 145.94%. Moreover, the “Neuroprotective effect (% of control)” value was “N/A (N/A = no protection)” in series [2] (setting [7]), 3.03 % of control in series [2] (setting [8]) and 26.08 % of control in series [2] (setting [9]). Further, the figures for the “Oxidative stress (% of control)” value in series [3] (1 μM compound with SAL 500 μM) and in series [3] (10 μM compound with SAL 500 μM) were 124.48 % of control and 157.22 % of control, respectively. The “ORAC (compound/trolox)” value in series [4] stood at 0.052 ± 0.002 compound/trolox. In series [5], the “Nrf2 (relative luminiscence)” value was found to be 0.27 ± 0.06 relative luminiscence.
Usually viability stands for a read-out of living cells in per cent, often relative to untreated cells. As to `Oc1ccc(Cn2cnc3c(N4CCCC4)nc(N4CCCC4)nc32)cc1` [Compound 30, 9-(4-hydroxybenzyl)-2,6-di(pyrrolidin-1-yl)-9H-purine], the viability at 24 h, 0.1 µM in series [6] (0.1 μM compound) was 99.5%. Further, the viability at 24 h, 1 µM in series [6] (1 μM compound) was 111%. Further, the viability at 24 h, 10 µM in series [6] (10 μM compound) is 123%. Besides, the “Neuroprotective effect (% of control)” value was 10.62 % of control in series [2] (setting [7]) and 26.41 % of control in series [2] (setting [9]). Besides, in series [3] (Homo sapiens, SH-SY5Y, 1 μM compound with SAL 500 μM, read-out: Oxidative stress (% of control)), the activity at 1 µM turned out to be 95.9%. Further, the activity at 10 µM in series [3] (Homo sapiens, SH-SY5Y, 10 μM compound with SAL 500 μM, read-out: Oxidative stress (% of control)) amounted to 97.4%. The “reduction of oxidative stress induced by Salsolinol (in words)” value in series [3] (SAL 500 μM, compounds 1 and 10 μM) is listed as “highest potency toward the reduction of oxidative stress”. Further, the “ORAC (compound/trolox)” value in series [4] is 0.422 ± 0.034 compound/trolox. The “Nrf2 (relative luminiscence)” value in series [5] came out at 0.29 ± 0.11 relative luminiscence.
